Assay results as given in patent publication US7879848B2, “Dipeptidyl Peptidase-IV inhibiting compounds, method of preparing the same, and pharmaceutical compositions containing the same as an active agent” (LG Life Sciences, Ltd., priority 2005, dated 2011).

biological target: T1, Dipeptidyl Peptidase-IV (DPP-IV) (Homo sapiens, UniProt P27487); assay: Measurement of DPP-IV Activity-Inhibiting Ability (fluorescent substrate Ac-Gly-Pro-AFC); assay type: biochemical; details: 25° C., 50 mmol HEPES (pH 7.4), DP-IV 7.1 nM, enzyme reaction for 1 hour
T1 construct: made in house
T1 sequence (P27487 whole entry): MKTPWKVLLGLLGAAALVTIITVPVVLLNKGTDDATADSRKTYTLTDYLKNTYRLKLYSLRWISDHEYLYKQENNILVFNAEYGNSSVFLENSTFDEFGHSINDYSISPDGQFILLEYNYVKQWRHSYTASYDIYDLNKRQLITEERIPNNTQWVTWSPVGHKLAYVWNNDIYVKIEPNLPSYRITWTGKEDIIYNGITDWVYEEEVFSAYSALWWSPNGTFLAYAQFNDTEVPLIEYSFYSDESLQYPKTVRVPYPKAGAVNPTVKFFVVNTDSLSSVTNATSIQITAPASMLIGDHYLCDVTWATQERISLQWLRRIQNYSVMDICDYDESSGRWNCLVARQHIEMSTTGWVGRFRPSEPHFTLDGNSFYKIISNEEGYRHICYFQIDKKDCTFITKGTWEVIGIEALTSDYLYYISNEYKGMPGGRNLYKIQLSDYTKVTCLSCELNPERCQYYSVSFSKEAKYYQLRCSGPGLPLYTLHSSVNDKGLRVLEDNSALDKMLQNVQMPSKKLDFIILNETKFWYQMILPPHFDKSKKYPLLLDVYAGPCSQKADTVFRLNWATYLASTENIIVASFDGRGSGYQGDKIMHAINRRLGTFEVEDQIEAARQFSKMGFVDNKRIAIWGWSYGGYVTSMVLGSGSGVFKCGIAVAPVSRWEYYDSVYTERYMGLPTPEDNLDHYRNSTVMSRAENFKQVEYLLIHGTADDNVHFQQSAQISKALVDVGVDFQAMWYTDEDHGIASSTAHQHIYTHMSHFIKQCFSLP
From the text: Dipeptidyl Peptidase-IV (DPP-IV), known as serine protease, was obtained by a modification of the known method (Tanaka T. et al, Proc. Natl. Acad. Sci. USA, (1994) 91, 3082-3086), which comprises cloning, purification by use of Baculo-Virus and activation steps. DPP-IV was used to test the pharmaceutical efficacy of candidate inhibitors as follows. The cloned DP-IV was expressed in Baculo-Virus, which was purified by nickel column and then subjected to dialysis. The inhibitors synthesized in Examples were tested to determine the binding activity there of using a fluorescent substrate, Ac-Gly-Pro-AFC. Enzyme reactions were conducted for various concentrations of inhibitors, using 100 µM Ac-Gly-Pro-AFC at 25° C. in a buffer solution containing 50 mmol HEPES (pH 7.4), with the concentration of DP-IV being 7.1 nM. […] As the fluorescent spectrometer, Spectra MAX GeminiXS fluorescent spectrometer from Molecular Device Co. was used and the excitation frequency and emission frequency were set to 400 nm and 505 nm, respectively.

Structure (SMILES) | IC50 [µM]
N[C@@H](CC(=O)N1CCn2c(nnc2C(F)(F)F)C1)CN1CCOC1=O [Ex. 1, 3-[2S-amino-4-oxo-4-(3-trifluoromethyl-5,6-dihydro-8H-[1,2,4]triazolo[4,3-a]pyrazin-7-yl)-butyl]-oxazolidin-2-one] | > 10
CC1CN(C[C@@H](N)CC(=O)N2CCn3c(nnc3C(F)(F)F)C2)C(=O)O1 (stereo partly drawn) [Ex. 2, 3-[2S-amino-4-oxo-4-(3-trifluoromethyl-5,6-dihydro-8H-[1,2,4]triazolo[4,3-a]pyrazin-7-yl)-butyl]-5-methyl-oxazolidin-2-one] | 0.95
CC1CC(=O)N(C[C@@H](N)CC(=O)N2CCn3c(nnc3C(F)(F)F)C2)C1 (stereo partly drawn) [Ex. 4, 1-[2S-amino-4-oxo-4-(3-trifluoromethyl-5,6-dihydro-8H-[1,2,4]triazolo[4,3-a]pyrazin-7-yl)-butyl]-4-methyl-pyrrolidin-2-one] | 0.127
N[C@@H](CC(=O)N1CCn2c(nnc2C(F)(F)F)C1)CN1CCC(F)C1=O (stereo partly drawn) [Ex. 5, 1-[2S-amino-4-oxo-4-(3-trifluoromethyl-5,6-dihydro-8H-[1,2,4]triazolo[4,3-a]pyrazin-7-yl)-butyl]-3-fluoro-pyrrolidin-2-one] | > 10
N[C@@H](CC(=O)N1CCn2c(nnc2C(F)(F)F)C1)CN1CCCC1=O [Ex. 6, 1-[2S-amino-4-oxo-4-(3-trifluoromethyl-5,6-dihydro-8H-[1,2,4]triazolo[4,3-a]pyrazin-7-yl)-butyl]-pyrrolidin-2-one] | 0.989
N[C@@H](CC(=O)N1CCn2c(nnc2C(F)(F)F)C1)CN1CCCC(F)C1=O (stereo partly drawn) [Ex. 7, 1-[2S-amino-4-oxo-4-(3-trifluoromethyl-5,6-dihydro-8H-[1,2,4]triazolo[4,3-a]pyrazin-7-yl)-butyl]-3-fluoro-piperidin-2-one] | > 10
CC1CCN(C[C@@H](N)CC(=O)N2CCn3c(nnc3C(F)(F)F)C2)C1=O (stereo partly drawn) [Ex. 8, 1-[2S-amino-4-oxo-4-(3-trifluoromethyl-5,6-dihydro-8H-[1,2,4]triazolo[4,3-a]pyrazin-7-yl)-butyl]-3-methyl-pyrrolidin-2-one] | 4.15
CC1=CC(=O)N(C[C@@H](N)CC(=O)N2CCn3c(nnc3C(F)(F)F)C2)C1 [Ex. 9, 1-[2S-amino-4-oxo-4-(3-trifluoromethyl-5,6-dihydro-8H-[1,2,4]triazolo[4,3-a]pyrazin-7-yl)-butyl]-4-methyl-1,5-dihydro-pyrrol-2-one] | 0.201
CC1CCN(C[C@@H](N)CC(=O)N2CCn3c(nnc3C(F)(F)F)C2)C(=O)C1 (stereo partly drawn) [Ex. 10, 1-[2S-amino-4-oxo-4-(3-trifluoromethyl-5,6-dihydro-8H-[1,2,4]triazolo[4,3-a]pyrazin-7-yl)-butyl]-4-methyl-piperidin-2-one] | 0.141
N[C@@H](CC(=O)N1CCn2c(nnc2C(F)(F)F)C1)CN1CC(F)(F)CCC1=O [Ex. 11, 1-[2S-amino-4-oxo-4-(3-trifluoromethyl-5,6-dihydro-8H-[1,2,4]triazolo[4,3-a]pyrazin-7-yl)-butyl]-5,5-difluoro-piperidin-2-one] | 0.075
C[C@@H]1CCC(=O)N(C[C@@H](N)CC(=O)N2CCn3c(nnc3C(F)(F)F)C2)C1 [Ex. 12, 1-[2S-amino-4-oxo-4-(3-trifluoromethyl-5,6-dihydro-8H-[1,2,4]triazolo[4,3-a]pyrazin-7-yl)-butyl]-5R-methyl-piperidin-2-one] | 0.035
N[C@@H](CC(=O)N1CCn2c(nnc2C(F)(F)F)C1)CN1CC(C(F)(F)F)CC1=O (stereo partly drawn) [Ex. 13, 1-[2S-amino-4-oxo-4-(3-trifluoromethyl-5,6-dihydro-8H-[1,2,4]triazolo[4,3-a]pyrazin-7-yl)-butyl]-4-trifluoromethyl-pyrrolidin-2-one] | 0.378
N[C@@H](CC(=O)N1CCn2c(nnc2C(F)(F)F)C1)CN1CCC(C(F)(F)F)CC1=O (stereo partly drawn) [Ex. 14, 1-[2S-amino-4-oxo-4-(3-trifluoromethyl-5,6-dihydro-8H-[1,2,4]triazolo[4,3-a]pyrazin-7-yl)-butyl]-4-trifluoromethyl-piperidin-2-one] | 0.217
N[C@@H](CC(=O)N1CCn2c(nnc2C(F)(F)F)C1)CN1CC(C(F)(F)F)CCC1=O (stereo partly drawn) [Ex. 15, 1-[2S-amino-4-oxo-4-(3-trifluoromethyl-5,6-dihydro-8H-[1,2,4]triazolo[4,3-a]pyrazin-7-yl)-butyl]-5-trifluoromethyl-piperidin-2-one] | 2.5
CC1CN(C[C@@H](N)CC(=O)N2CCn3c(nnc3C(F)(F)F)C2)C(=O)CO1 (stereo partly drawn) [Ex. 16, 4-[2S-amino-4-oxo-4-(3-trifluoromethyl-5,6-dihydro-8H-[1,2,4]triazolo[4,3-a]pyrazin-7-yl)-butyl]-6-methyl-morpholin-3-one] | 0.066
N[C@@H](CC(=O)N1CCc2ccccc2C1)CN1CCCCC1=O [Ex. 17, 1-[2S-amino-4-(3,4-dihydro-1H-isoquinolin-2-yl)-4-oxo-butyl]-piperidin-2-one] | 2.02

Next, values leading:

IC50 [µM] | Structure (SMILES)
0.816 | CC1CC(=O)N(C[C@@H](N)CC(=O)N2CCc3ccccc3C2)C1 (stereo partly drawn) [Ex. 18, 1-[2S-amino-4-(3,4-dihydro-1H-isoquinolin-2-yl)-4-oxo-butyl]-4-methyl-pyrrolidin-2-one]
0.712 | N[C@@H](CC(=O)N1CCc2c(noc2C(F)(F)F)C1)CN1CCCCC1=O [Ex. 19, 1-[2S-amino-4-oxo-4-(3-trifluoromethyl-4,5-dihydro-7H-isooxazolo[3,4-c]pyridin-6-yl)butyl]-piperidin-2-one]
0.268 | N[C@@H](CC(=O)N1CCc2c(C(F)(F)F)n[nH]c2C1)CN1CCCCC1=O [Ex. 20, 1-[2S-amino-4-oxo-4-(3-trifluoromethyl-1,4,5,7-tetrahydro-pyrazolo[3,4-c]pyridin-6-yl)-butyl]-piperidin-2-one]
0.024 | C[C@@H]1CCC(=O)N(C[C@@H](N)CC(=O)N2CCc3c(ncnc3C(F)(F)F)C2)C1 [Ex. 21]
0.049 | C[C@@H]1CCC(=O)N(C[C@@H](N)CC(=O)N2CCc3c(nc(-c4ccccc4)nc3C(F)(F)F)C2)C1 [Ex. 22, (5R)-1-{(2S)-2-amino-4-oxo-4-[2-phenyl-4-(trifluoromethyl)-5,8-dihydropyrido[3,4-d]pyrimidin-7(6H)-yl]butyl}-5-methylpiperidin-2-one]
0.13 | C[C@H]1CN(C[C@@H](N)CC(=O)N2CCc3c(nc(-c4ccccc4)nc3C(F)(F)F)C2)C(=O)CO1 [Ex. 23]
0.066 | N[C@@H](CC(=O)N1CCc2c(nc(-c3ccccc3)nc2C(F)(F)F)C1)CN1CC(F)(F)CCC1=O [Ex. 24, 1-{(2S)-2-amino-4-oxo-4-[2-phenyl-4-(trifluoromethyl)-5,8-dihydropyrido[3,4-d]pyrimidin-7(6H)-yl]butyl}-5,5-difluoropiperidin-2-one]
0.009 | N[C@@H](CC(=O)N1CCc2c(nc(C3CC3)nc2C(F)(F)F)C1)CN1CC(F)(F)CCC1=O [Ex. 25, 1-{(2S)-2-amino-4-[2-cyclopropyl-4-(trifluoromethyl)-5,8-dihydropyrido[3,4-d]pyrimidin-7(6H)-yl]-4-oxobutyl}-5,5-difluoropiperidin-2-one]
0.005 | C[C@@H]1CCC(=O)N(C[C@@H](N)CC(=O)N2CCc3c(nc(C4CC4)nc3C(F)(F)F)C2)C1 [Ex. 26, 1-{(2S)-2-amino-4-[2-cyclopropyl-4-(trifluoromethyl)-5,8-dihydropyrido[3,4-d]pyrimidin-7(6H)-yl]-4-oxobutyl}-5-methylpiperidin-2-one]
0.028 | C[C@H]1CN(C[C@@H](N)CC(=O)N2CCc3c(nc(C4CC4)nc3C(F)(F)F)C2)C(=O)CO1 [Ex. 27, (6S)-4-{(2S)-2-amino-4-[2-cyclopropyl-4-(trifluoromethyl)-5,8-dihydropyrido[3,4-d]pyrimidin-7(6H)-yl]-4-oxobutyl}-6-methylmorpholine-3-one]
1.16 | N[C@@H](CC(=O)N1CCc2c(cccc2C(F)(F)F)C1)CN1CC(F)(F)CCC1=O [Ex. 28, 1-{(2S)-2-amino-4-oxo-4-[5-(trifluoromethyl)-3,4-dihydroisoquinolin-2(1H)-yl]butyl}5,5-difluoropiperidin-2-one]
0.175 | C[C@H]1CN(C[C@@H](N)CC(=O)N2CCc3c(cccc3C(F)(F)F)C2)C(=O)CO1 [Ex. 29, (6S)-4-{(2S)-2-amino-4-oxo-4-[5-(trifluoromethyl)-3,4-dihydroisoquinolin-2(1H)-yl]butyl}-6-methylmorpholine-3-one]
0.021 | N[C@@H](CC(=O)N1CCc2c(nc(-c3ccc(F)cc3)nc2C(F)(F)F)C1)CN1CC(F)(F)CCC1=O [Ex. 30, 1-{(2S)-2-amino-4-[2-(4-fluorophenyl)-4-(trifluoromethyl)-5,8-dihydropyrido[3,4-d]pyrimidin-7(6H)-yl]-4-oxobutyl}-5,5-difluoropiperidin-2-one]
0.025 | C[C@H]1CN(C[C@@H](N)CC(=O)N2CCc3c(nc(-c4ccc(F)cc4)nc3C(F)(F)F)C2)C(=O)CO1 [Ex. 31]
0.199 | N[C@@H](CC(=O)N1CCc2c(nc(-c3cccc(F)c3)nc2C(F)(F)F)C1)CN1CC(F)(F)CCC1=O [Ex. 32, 1-{(2S)-2-amino-4-[2-(3-fluorophenyl)-4-(trifluoromethyl)-5,8-dihydropyrido[3,4-d]pyrimidin-7(6H)-yl]-4-oxobutyl}-5,5-difluoropiperidin-2-one]
0.17 | C[C@H]1CN(C[C@@H](N)CC(=O)N2CCc3c(nc(-c4cccc(F)c4)nc3C(F)(F)F)C2)C(=O)CO1 [Ex. 33]
